The record followed here is patent US20260297081A1, “COMPOUNDS AND METHODS OF TREATING CANCERS” (Cullgen Inc., priority 2023, published 2026).

For the test, the target named is CDK4 (Homo sapiens, UniProt P11802+Q16531). Description: HiBiT detection of HiBiT-tagged CDK4 protein level in MCF7 cells, 16 hours (Table 8). Conditions: MCF7 cells stably expressing HiBiT tagged target proteins; for activity at 0.01 µM: 10 nM, read-out: % CDK4 Relative Level (10 nM); for activity at 0.1 µM: 100 nM, read-out: % CDK4 Relative Level (100 nM). The format is cell-based. More on the design: expressed in transfected cells; host or cells: MCF7. As for the experimental part: HiBiT detection system quantitatively measures total amounts of HiBiT-tagged proteins using a luminescent based method. MCF7 cells stably expressing HiBiT tagged target proteins were treated with heterobifunctional compounds at indicated concentrations for 16 hours, then lysed with Nano-Glo HiBiT Lytic detection reagents.
CDK4, sequence (P11802 whole entry): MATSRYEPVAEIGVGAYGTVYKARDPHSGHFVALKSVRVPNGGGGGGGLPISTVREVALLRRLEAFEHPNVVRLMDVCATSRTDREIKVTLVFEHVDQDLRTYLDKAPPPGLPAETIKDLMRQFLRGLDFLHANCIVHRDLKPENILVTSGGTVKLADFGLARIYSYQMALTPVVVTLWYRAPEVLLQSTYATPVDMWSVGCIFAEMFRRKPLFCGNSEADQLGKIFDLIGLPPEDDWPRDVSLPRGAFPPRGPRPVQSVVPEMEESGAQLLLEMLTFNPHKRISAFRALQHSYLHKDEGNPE
CDK4, sequence (P24385 whole entry partner): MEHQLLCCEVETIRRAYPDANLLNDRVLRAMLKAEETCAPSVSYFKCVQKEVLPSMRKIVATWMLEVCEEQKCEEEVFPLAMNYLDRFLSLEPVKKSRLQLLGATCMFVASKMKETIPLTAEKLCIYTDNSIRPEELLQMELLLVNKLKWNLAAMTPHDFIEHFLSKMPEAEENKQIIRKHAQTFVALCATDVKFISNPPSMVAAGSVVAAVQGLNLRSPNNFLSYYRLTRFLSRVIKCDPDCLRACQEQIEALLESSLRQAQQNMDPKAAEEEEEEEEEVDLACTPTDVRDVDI
CDK4, sequence (Q16531 2-1140 limits assumed): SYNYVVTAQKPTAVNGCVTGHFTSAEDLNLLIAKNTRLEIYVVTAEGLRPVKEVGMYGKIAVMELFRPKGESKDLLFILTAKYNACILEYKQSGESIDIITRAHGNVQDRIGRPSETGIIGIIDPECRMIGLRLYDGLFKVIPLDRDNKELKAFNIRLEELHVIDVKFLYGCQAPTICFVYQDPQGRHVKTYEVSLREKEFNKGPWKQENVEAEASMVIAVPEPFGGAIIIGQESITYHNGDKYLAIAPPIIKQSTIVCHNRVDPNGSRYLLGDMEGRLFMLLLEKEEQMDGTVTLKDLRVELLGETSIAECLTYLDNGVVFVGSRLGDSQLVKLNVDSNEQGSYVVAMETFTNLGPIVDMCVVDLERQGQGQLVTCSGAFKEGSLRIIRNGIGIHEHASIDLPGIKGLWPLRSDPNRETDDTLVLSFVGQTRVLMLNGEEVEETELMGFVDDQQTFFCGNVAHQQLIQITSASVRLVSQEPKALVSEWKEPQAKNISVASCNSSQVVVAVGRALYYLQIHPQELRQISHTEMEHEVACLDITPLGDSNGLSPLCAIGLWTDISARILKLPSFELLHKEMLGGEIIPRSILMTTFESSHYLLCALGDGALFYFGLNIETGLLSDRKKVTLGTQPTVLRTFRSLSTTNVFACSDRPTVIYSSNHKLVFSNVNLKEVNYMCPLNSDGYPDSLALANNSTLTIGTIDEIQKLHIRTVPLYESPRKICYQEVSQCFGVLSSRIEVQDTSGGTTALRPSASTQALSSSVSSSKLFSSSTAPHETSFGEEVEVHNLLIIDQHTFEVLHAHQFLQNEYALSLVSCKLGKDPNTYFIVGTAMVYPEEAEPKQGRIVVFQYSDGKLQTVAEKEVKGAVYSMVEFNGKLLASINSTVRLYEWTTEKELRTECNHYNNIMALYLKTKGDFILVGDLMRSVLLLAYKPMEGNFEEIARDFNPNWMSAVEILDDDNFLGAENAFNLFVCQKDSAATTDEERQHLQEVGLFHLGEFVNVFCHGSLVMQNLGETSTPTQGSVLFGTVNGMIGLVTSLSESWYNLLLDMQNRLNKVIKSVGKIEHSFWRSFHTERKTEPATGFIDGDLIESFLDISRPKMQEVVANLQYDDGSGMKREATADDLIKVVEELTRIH

Take `CNc1ccc(C(=O)Nc2ccc(N(C)C)nn2)c(NCCCCCCCCNC(=O)CN2CCN(c3ccc(Nc4ncc(F)c(-c5cc(F)c6nc(C)n(C(C)C)c6c5)n4)nc3)CC2)n1` [CPD-664, N-(6-(dimethylamino)pyridazin-3-yl)-2-((8-(2-(4-(6-((5-fluoro-4-(4-fluoro-1-isopropyl-2-methyl-1H-benzo[d]imidazol-6-yl)pyrimidin-2-yl)amino)pyridin-3-yl)piperazin-1-yl)acetamido)octyl)amino)-6-(methylamino)nicotinamide]: the activity at 0.01 µM was over 85% and the activity at 0.1 µM is over 85%.
For the compound `CNc1ccc(C(=O)Nc2ccc(N(C)C)nn2)c(NCCOCCC(=O)NC2CCC(Nc3ncc4ccc(=O)n(C5CCCC5)c4n3)CC2)n1` (stereo not shown) [CPD-672, 2-((2-(3-((4-((8-cyclopentyl-7-oxo-7,8-dihydropyrido[2,3-d]pyrimidin-2-yl)amino)cyclohexyl)amino)-3-oxopropoxy)ethyl)amino)-N-(6-(dimethylamino)pyridazin-3-yl)-6-(methylamino)nicotinamide], the activity at 0.01 µM is over 85% and the activity at 0.1 µM is over 85%.
For the compound `CNc1ccc(C(=O)Nc2ccc(N(C)C)nn2)c(NCCOCCNC(=O)CN2CCN(c3ccc(Nc4ncc5cc6n(c5n4)C4(CCCCC4)CNC6=O)nc3)CC2)n1` [CPD-647, N-(6-(dimethylamino)pyridazin-3-yl)-6-(methylamino)-2-((2-(2-(2-(4-(6-((6′-oxo-7′,8′-dihydro-6′H-spiro[cyclohexane-1,9′-pyrazino[1′,2′:1,5]pyrrolo[2,3-d]pyrimidin]-2′-yl)amino)pyridin-3-yl)piperazin-1-yl)acetamido)ethoxy)ethyl)amino)nicotinamide], the activity at 0.01 µM is over 85% and the activity at 0.1 µM is over 85%.
For `CNc1ccc(C(=O)Nc2ccc(N(C)C)nn2)c(NCCCCCCC(=O)NC2CCC(Nc3ncc4ccc(=O)n(C5CCCC5)c4n3)CC2)n1` (stereo not shown) [CPD-670, 2-((7-((4-((8-cyclopentyl-7-oxo-7,8-dihydropyrido[2,3-d]pyrimidin-2-yl)amino)cyclohexyl)amino)-7-oxoheptyl)amino)-N-(6-(dimethylamino)pyridazin-3-yl)-6-(methylamino)nicotinamide], the activity at 0.01 µM was over 85% and the activity at 0.1 µM is over 85%.
`CNc1ccc(C(=O)Nc2ccc(N(C)C)nn2)c(NCCOCCC(=O)N2CCN(Cc3ccc(Nc4ncc(F)c(-c5cc(F)c6nc(C)n(C(C)C)c6c5)n4)nc3)CC2)n1` [CPD-606, N-(6-(dimethylamino)pyridazin-3-yl)-2-((2-(3-(4-((6-((5-fluoro-4-(4-fluoro-1-isopropyl-2-methyl-1H-benzo[d]imidazol-6-yl)pyrimidin-2-yl)amino)pyridin-3-yl)methyl)piperazin-1-yl)-3-oxopropoxy)ethyl)amino)-6-(methylamino)nicotinamide]: the activity at 0.01 µM was over 85% and the activity at 0.1 µM was over 85%.
On to `CCc1ccc(C(=O)Nc2ccc(N(C)C)nn2)c(NC2CC3(CC(NC(=O)CN4CCN(Cc5ccc(Nc6ncc7c(C)c(C(C)=O)c(=O)n(C8CCCC8)c7n6)nc5)CC4)C3)C2)c1` (stereo not shown) [CPD-598, 2-((6-(2-(4-((6-((6-acetyl-8-cyclopentyl-5-methyl-7-oxo-7,8-dihydropyrido[2,3-d]pyrimidin-2-yl)amino)pyridin-3-yl)methyl)piperazin-1-yl)acetamido)spiro[3.3]heptan-2-yl)amino)-N-(6-(dimethylamino)pyridazin-3-yl)-4-ethylbenzamide], for which the activity at 0.01 µM was in the range of 55 to 85% and the activity at 0.1 µM was over 85%.
As for `CNc1ccc(C(=O)Nc2ccc(N(C)C)nn2)c(NCCCCCCCC(=O)N2CCN(c3ccc(Nc4ncc5cc6n(c5n4)C4(CCCCC4)CNC6=O)nc3)CC2)n1` [CPD-637, N-(6-(dimethylamino)pyridazin-3-yl)-6-(methylamino)-2-((8-oxo-8-(4-(6-((6′-oxo-7′,8′-dihydro-6′H-spiro[cyclohexane-1,9′-pyrazino[1′,2′:1,5]pyrrolo[2,3-d]pyrimidin]-2′-yl)amino)pyridin-3-yl)piperazin-1-yl)octyl)amino)nicotinamide], the activity at 0.01 µM was over 85% and the activity at 0.1 µM was over 85%.
Turning to `CNc1ccc(C(=O)Nc2ccc(N(C)C)nn2)c(NCCCCCNC(=O)CN2CCN(Cc3ccc(Nc4ncc(F)c(-c5cc(F)c6nc(C)n(C(C)C)c6c5)n4)nc3)CC2)n1` [CPD-611, N-(6-(dimethylamino)pyridazin-3-yl)-2-((5-(2-(4-((6-((5-fluoro-4-(4-fluoro-1-isopropyl-2-methyl-1H-benzo[d]imidazol-6-yl)pyrimidin-2-yl)amino)pyridin-3-yl)methyl)piperazin-1-yl)acetamido)pentyl)amino)-6-(methylamino)nicotinamide], the activity at 0.01 µM is over 85% and the activity at 0.1 µM was over 85%.
For the compound `CNc1ccc(C(=O)Nc2ccc(N(C)C)nn2)c(NCCCCCCC(=O)NC2CCC3(CC2)CC(Nc2ncc4ccc(=O)n(C5CCCC5)c4n2)C3)n1` (stereo not shown) [CPD-677, 2-((7-((2-((8-cyclopentyl-7-oxo-7,8-dihydropyrido[2,3-d]pyrimidin-2-yl)amino)spiro[3.5]nonan-7-yl)amino)-7-oxoheptyl)amino)-N-(6-(dimethylamino)pyridazin-3-yl)-6-(methylamino)nicotinamide], the activity at 0.01 µM is over 85% and the activity at 0.1 µM was over 85%.
As for `CNc1ccc(C(=O)Nc2ccc(N(C)C)nn2)c(NCCC(=O)N2CCN(c3ccc(Nc4ncc5cc6n(c5n4)C4(CCCCC4)CNC6=O)nc3)CC2)n1` [CPD-632, N-(6-(dimethylamino)pyridazin-3-yl)-6-(methylamino)-2-((3-oxo-3-(4-(6-((6′-oxo-7′,8′-dihydro-6′H-spiro[cyclohexane-1,9′-pyrazino[1′,2′:1,5]pyrrolo[2,3-d]pyrimidin]-2′-yl)amino)pyridin-3-yl)piperazin-1-yl)propyl)amino)nicotinamide], the activity at 0.01 µM was over 85% and the activity at 0.1 µM was over 85%.
For `CNc1ccc(C(=O)Nc2ccc(N(C)C)nn2)c(NCCCNC(=O)CN2CCN(c3ccc(Nc4ncc(F)c(-c5cc(F)c6nc(C)n(C(C)C)c6c5)n4)nc3)CC2)n1` [CPD-659, N-(6-(dimethylamino)pyridazin-3-yl)-2-((3-(2-(4-(6-((5-fluoro-4-(4-fluoro-1-isopropyl-2-methyl-1H-benzo[d]imidazol-6-yl)pyrimidin-2-yl)amino)pyridin-3-yl)piperazin-1-yl)acetamido)propyl)amino)-6-(methylamino)nicotinamide], the activity at 0.01 µM was over 85% and the activity at 0.1 µM was over 85%.
Consider `CNc1ccc(C(=O)Nc2ccc(N(C)C)nn2)c(NCCCCCCCNC(=O)CN2CCN(Cc3ccc(Nc4ncc(F)c(-c5cc(F)c6nc(C)n(C(C)C)c6c5)n4)nc3)CC2)n1` [CPD-613, N-(6-(dimethylamino)pyridazin-3-yl)-2-((7-(2-(4-((6-((5-fluoro-4-(4-fluoro-1-isopropyl-2-methyl-1H-benzo[d]imidazol-6-yl)pyrimidin-2-yl)amino)pyridin-3-yl)methyl)piperazin-1-yl)acetamido)heptyl)amino)-6-(methylamino)nicotinamide], for which the activity at 0.01 µM was over 85% and the activity at 0.1 µM is over 85%.
Regarding `CNc1ccc(C(=O)Nc2ccc(N(C)C)nn2)c(NCCCCCCCC(=O)NC2CCC(Nc3ncc4ccc(=O)n(C5CCCC5)c4n3)CC2)n1` (stereo not shown) [CPD-671, 2-((8-((4-((8-cyclopentyl-7-oxo-7,8-dihydropyrido[2,3-d]pyrimidin-2-yl)amino)cyclohexyl)amino)-8-oxooctyl)amino)-N-(6-(dimethylamino)pyridazin-3-yl)-6-(methylamino)nicotinamide], the activity at 0.01 µM was over 85% and the activity at 0.1 µM is over 85%.
As to `CNc1ccc(C(=O)Nc2ccc(N(C)C)nn2)c(NCCCCCCCC(=O)NC2CCC3(CC2)CC(Nc2ncc4ccc(=O)n(C5CCCC5)c4n2)C3)n1` (stereo not shown) [CPD-678, 2-((8-((2-((8-cyclopentyl-7-oxo-7,8-dihydropyrido[2,3-d]pyrimidin-2-yl)amino)spiro[3.5]nonan-7-yl)amino)-8-oxooctyl)amino)-N-(6-(dimethylamino)pyridazin-3-yl)-6-(methylamino)nicotinamide], the activity at 0.01 µM was over 85% and the activity at 0.1 µM was over 85%.
For the compound `CNc1ccc(C(=O)Nc2ccc(N(C)C)nn2)c(NCCCCNC(=O)CN2CCN(Cc3ccc(Nc4ncc(F)c(-c5cc(F)c6nc(C)n(C(C)C)c6c5)n4)nc3)CC2)n1` [CPD-610, N-(6-(dimethylamino)pyridazin-3-yl)-2-((4-(2-(4-((6-((5-fluoro-4-(4-fluoro-1-isopropyl-2-methyl-1H-benzo[d]imidazol-6-yl)pyrimidin-2-yl)amino)pyridin-3-yl)methyl)piperazin-1-yl)acetamido)butyl)amino)-6-(methylamino)nicotinamide], the activity at 0.01 µM was over 85% and the activity at 0.1 µM is over 85%.
`CNc1ccc(C(=O)Nc2ccc(N(C)C)nn2)c(NCCCCCCCC(=O)N2CCN(c3ccc(Nc4ncc(F)c(-c5cc(F)c6nc(C)n(C(C)C)c6c5)n4)nc3)CC2)n1` [CPD-653, N-(6-(dimethylamino)pyridazin-3-yl)-2-((8-(4-(6-((5-fluoro-4-(4-fluoro-1-isopropyl-2-methyl-1H-benzo[d]imidazol-6-yl)pyrimidin-2-yl)amino)pyridin-3-yl)piperazin-1-yl)-8-oxooctyl)amino)-6-(methylamino)nicotinamide]: the activity at 0.01 µM is over 85% and the activity at 0.1 µM was over 85%.
For `CNc1ccc(C(=O)Nc2ccc(N(C)C)nn2)c(NCCOCCNC(=O)CN2CCN(Cc3ccc(Nc4ncc(F)c(-c5cc(F)c6nc(C)n(C(C)C)c6c5)n4)nc3)CC2)n1` [CPD-615, N-(6-(dimethylamino)pyridazin-3-yl)-2-((2-(2-(2-(4-((6-((5-fluoro-4-(4-fluoro-1-isopropyl-2-methyl-1H-benzo[d]imidazol-6-yl)pyrimidin-2-yl)amino)pyridin-3-yl)methyl)piperazin-1-yl)acetamido)ethoxy)ethyl)amino)-6-(methylamino)nicotinamide], the activity at 0.01 µM was over 85% and the activity at 0.1 µM is over 85%.
